Key:
EGFR = experiment: Western blotting for expression of EGFR (test (b)); format: cell-based, human; details: for Test (b) EGFR: at least 50% decrease in level of or 50% downregulation of expression: positive in 184B5, 184B5/HER, 1483, LNCaP, HeLa and CaSki cells, 24 h, Western blot
Text: We turn now to the criterion (b), that is at least 50% decrease in level of or 50% downregulation of expression of Class I family of receptors tyrosine kinase. The Class I family of receptors tyrosine kinase is described in Reese, M. D., et al Stem Cells 15, pages 1-8 (1997), the whole of which in incorporated herein by reference. Members of the family include HER-2/neu, HER-3, HER-4 and epidermal growth factor receptor (EGFR) and are single-chain membrane spanning proteins which have significant homology to one another including about 80% amino acid identity in the tyrosine kinase domain.
Epidermal growth factor receptor (EGFR) is a 170 kDA glycoprotein. […] After ligand binding, EGFR undergoes dimerization which is essential for activation of its enzymatic kinase activity. EGFR is thus autophospliorylated and transphosphorylated on tyrosine residues, and the phosphorylated residues become the site of association of effector proteins. Overexpressed EGFR is intimately involved in modulating the epidermal growth factor growth signal and is considered as likely to confer a growth advantage. This conclusion is supported by the observation that tumor growth in nude mice is inhibited by treatment with anti-EGFR antibodies and tumorigenicity in nude mice is inhibited through blockage of the tyrosine kinase activity of the receptor.
To evaluate the expression of Class I family of receptors tyrosine kinase (EGFR, HER-2/neu), Western blotting can be performed. Antibodies for EGFR and HER-2/neu can be obtained from Santa Cruz Biotechnology, Inc.
Expression of EGFR (performed in 184B5, 184B5/HER, 1483, LNCaP, HeLa and CaSki cells)and HER-2/neu (performed in 184B5/HER, SKBR3 and BT474 cells) was assessed in cells after treatment with test compound for 24 hours. 5×10^6 cells were used for the treatment. Western blotting technique was used to assess the expression levels in cells treated with the test compound compared to vehicle alone. Western blotting was carried out as follows:
Cell lysates were prepared by treating cells with lysis buffer (150 mM NaCl, 100 mM Tris (pH 8.0), 1% Tween 20, 50 mM diethyldithiocarbamate, 1 mM EDTA, 1 mM phenylmethylsulfonyl fluoride, 10 μg/ml aprotinin, 10 μg/ml trypsin inhibitor and 10 μg/ml leupeptin). Lysates were sonicated for 20 s on ice and centrifuged at 10,000×g for 10 min to sediment the particulate material. The protein concentration of the supernatant was measured by the method of Lowry, O. H., et al., J. Biol. Chem. 193, 265-275 (195 1). SDS/PAGE was performed under reducing conditions on 10% polyacrylamide gels as described by Laemmli, U.K., Nature (Lond.) 227, 680-685 (1970). The resolved proteins were transferred onto nitrocellulose sheets as detailed by Towbin, H. et al., Proc. Natl. Acad. Sci. USA 76, 4350-4354 (1979). The nitrocellulose membrane was then incubated with anti-EGFR antiserum or anti-HER-2/neu antiserum. Secondary antibody to IgG conjugated to horseradish peroxidase was used. The various antisera were purchased from Santa Cruz Biotechnology, Inc., CA. The blots were probed with the Renaissance Western blot detection system according to the manufacturer's instructions (PerkinElmer Life Sciences, Boston, Mass.).

PPRE luciferase = PPRE luciferase activation, transient transfection reporter assay (test (a)); format: cell-based, human; details: for Test (a) activation of PPRE luciferase by at least 100%: positive in 184B5, 184B5/HER, HCA7, HCT116, SKBR3 and BT474 cells, 24 h treatment

Structure (SMILES) | Test (b) EGFR: at least 50% decrease in level of or 50% downregulation of expression (EGFR) | Test (a) activation of PPRE luciferase by at least 100% (PPRE luciferase) | decrease in level of EGFR (EGFR; 184B5 cells, 24 hours, Western blotting) | activation of the promoter (PPRE-luciferase) (PPRE luciferase; 184B5 cells, 24 hours, highest concentration) [%]
Cc1ccc(-c2cc(C(F)(F)F)nn2-c2ccc(S(N)(=O)=O)cc2)cc1 [Celecoxib] | + (A plus sign in the table indicates a positive result, that is meeting the test for each cell line as indicated above as providing a positive result) | + (A plus sign in the table indicates a positive result, that is meeting the test for each cell line as indicated above as providing a positive result) | – | –
COc1ccc(OC(=O)Cc2c(C)n(C(=O)c3ccc(Cl)cc3)c3ccc(OC)cc23)cc1 [Indomethacin Analog 3, 1-(p-chlorobenzoyl)-5-methoxy-2-methyl-1H-indole-3-acetic acid, 4-methoxyphenyl ester] | + (A plus sign in the table indicates a positive result, that is meeting the test for each cell line as indicated above as providing a positive result) | + (A plus sign in the table indicates a positive result, that is meeting the test for each cell line as indicated above as providing a positive result) | – | –
CCCCCCCOC(=O)Cc1c(C)n(C(=O)c2ccc(Cl)cc2)c2ccc(OC)cc12 [Indomethacin Analog 1, indomethacin heptyl ester] | + (A plus sign in the table indicates a positive result, that is meeting the test for each cell line as indicated above as providing a positive result) | + (A plus sign in the table indicates a positive result, that is meeting the test for each cell line as indicated above as providing a positive result) | – | –
CS(=O)(=O)c1ccc(-n2nc(C(F)(F)F)cc2-c2ccc(F)cc2)cc1 [SC-58125, 4-[5-(4-fluorophenyl)-3-(trifluoromethyl)-1H-pyrazol-1-yl]benzenemethylsulfone] | + (A plus sign in the table indicates a positive result, that is meeting the test for each cell line as indicated above as providing a positive result) | + (A plus sign in the table indicates a positive result, that is meeting the test for each cell line as indicated above as providing a positive result) | – | –
NS(=O)(=O)c1ccc(-n2nc(C(F)(F)F)cc2-c2ccc(Cl)cc2)cc1 [SC-236, 4-[5-(4-chlorophenyl)-3-(trifluoromethyl)-1H-pyrazol-1-yl]benzenesulfonamide] | + (A plus sign in the table indicates a positive result, that is meeting the test for each cell line as indicated above as providing a positive result) | + (A plus sign in the table indicates a positive result, that is meeting the test for each cell line as indicated above as providing a positive result) | more than 50% | 150

Source: US20050031537A1, “Multifunctional COX-2 inhibitors” (priority 2002, published 2005)
